Patent US9440946B2, “N-phenethylcarboxamide derivatives” (BAYER INTELLECTUAL PROPERTY GMBH, priority 2005, dated 2016)

What was measured:
[1] = tested on: Pyrenophora teres; test: In vivo test on Pyrenophora teres (barley net blotch), preventive spray on barley plants; conditions: 288 h, barley plants (Express variety), contaminated 24 hours after treatment, grading 12 days after contamination vs control plants, read-out: protection (good, at least 70%, or total); for pest or weed control at 330 ppm: dose of 330 ppm
Experimental: (§1) The active ingredients tested are prepared by homogenization in a mixture of acetone/tween/DMSO, then diluted with water to obtain the desired active material concentration.
Barley plants (Express variety), sown on a 50/50 peat soil-pozzolana substrate in starter cups and grown at 12° C., are treated at the 1-leaf stage (10 cm tall) by spraying with the active ingredient prepared as described above. Plants, used as controls, are treated with the mixture of acetone/tween/DMSO/water not containing the active material.
After 24 hours, the plants are contaminated by spraying them with an aqueous suspension of Pyrenophora teres spores (12,000 spores per ml). The spores are collected from a 12-day-old culture. The contaminated barley plants are incubated for 24 hours at about 20° C. and at 100% relative humidity, and then for 12 days at 80% relative humidity.
Grading is carried out 12 days after the contamination, in comparison with the control plants.

[2] = tested on: Alternaria brassicae; test: In vivo test on Alternaria brassicae (leaf spot of crucifers), preventive spray on radish plants; conditions: radish plants (Pernot variety), contaminated 24 hours after treatment, grading 6 to 7 days after contamination vs control plants, read-out: protection (good, at least 70%, or total); for pest or weed control at 330 ppm: dose of 330 ppm; for pest or weed control at 500 ppm: dose of 500 ppm
Experimental: as §1
Radish plants (Pernot variety), sown on a 50/50 peat soil-pozzolana substrate in starter cups and grown at 18-20° C., are treated at the cotyledon stage by spraying with the active ingredient prepared as described above.
(§2) Plants, used as controls, are treated with the mixture of acetone/tween/DMSO/water not containing the active material.
After 24 hours, the plants are contaminated by spraying them with an aqueous suspension of Alternaria brassicae spores (40,000 spores per cm^3). The spores are collected from a 12 to 13 days-old culture.
The contaminated radish plants are incubated for 6-7 days at about 18° C., under a humid atmosphere.
Grading is carried out 6 to 7 days after the contamination, in comparison with the control plants.

[3] = tested on: Botrytis cinerea; test: In vivo test on Botrytis cinerea (cucumber grey mould), preventive spray on gherkin plants; conditions: gherkin plants (Vert petit de Paris variety), contaminated 24 hours after treatment, grading 5/7 days after contamination vs control plants, read-out: protection (good, at least 50%, or total); for pest or weed control at 330 ppm: dose of 330 ppm; for pest or weed control at 500 ppm: dose of 500 ppm
Experimental: The active ingredients tested are prepared by homogenization in a mixture of acetone/tween/DMSO, then diluted with water to obtain the desired active material
Gherkin plants (Vert petit de Paris variety), sown on a 50/50 peat soil-pozzolana substrate in starter cups and grown at 18-20° C., are treated at the cotyledon Z11 stage by spraying with the active ingredient prepared as described above.
as §2
After 24 hours, the plants are contaminated by depositing drops of an aqueous suspension of Botrytis cinerea spores (150,000 spores per ml) on upper surface of the leaves. The spores are collected from a 15-day-old culture and are suspended in a nutrient solution composed of: • 20 g/L of gelatin • 50 g/L of cane sugar • 2 g/L of NH4NO3 • 1 g/L of KH2PO4
The contaminated cucumber plants are settled for 5/7 days in a climatic room at 15-11° C. (day/night) and at 80% relative humidity.
Grading is carried out 5/7 days after the contamination, in comparison with the control plants. Under these conditions, good (at least 50%) or total protection is observed: • at a dose of 500 ppm with the following compounds: C-1, D-12, G-8 and I-1; and • at a dose of 330 ppm with the following compounds: G-2, G-5, G-6 and G11.

| Compound | pest or weed control at 330 ppm [1] [%] | pest or weed control at 330 ppm [2] [%] | other results |
| --- | --- | --- | --- |
| Cn1cc(C(=O)NCCc2ccc(F)cc2F)c(C(F)(F)F)n1 [Compound G-20] | ≥ 70 | – | – |
| Cn1cc(C(=O)NCCc2ccc(C(F)(F)F)cc2Cl)c(C(F)(F)F)n1 [Compound G-15] | ≥ 70 | ≥ 70 | – |
| Cc1ccccc1CCNC(=O)c1cn(C)nc1C(F)(F)F [Compound G-14] | – | ≥ 70 | – |
| COc1ccc(Br)cc1CCNC(=O)c1cn(C)nc1C(F)F [Compound G-10] | – | ≥ 70 | – |
| Cc1ccc(CCNC(=O)c2cn(C)nc2C(F)F)c(C)c1 [Compound G-5] | ≥ 70 | ≥ 70 | pest or weed control at 330 ppm [3]: ≥ 50% |
| Cc1ccc(C)c(CCNC(=O)c2cn(C)nc2C(F)(F)F)c1 [Compound G-17] | – | ≥ 70 | – |
| Cc1ccc(C)c(CCNC(=O)c2cccnc2Cl)c1 [Compound E-1] | – | ≥ 70 | – |
| Cc1nc(C(F)F)c(C(=O)NCCc2ccc(Cl)cc2Cl)s1 [Compound D-12] | – | – | pest or weed control at 500 ppm [3]: ≥ 50% |
| Cn1cc(C(=O)NCCc2c(Cl)cc(C(F)(F)F)cc2Cl)c(C(F)F)n1 [Compound G-11] | ≥ 70 | – | pest or weed control at 330 ppm [3]: ≥ 50% |
| Cc1ccc(CCNC(=O)c2sc(C)nc2C(F)(F)F)c(C)c1 [Compound D-2] | – | ≥ 70 | – |
| Cc1nc(C(F)(F)F)c(C(=O)NCCc2c(Cl)cccc2Cl)s1 [Compound D-4] | – | ≥ 70 | – |
| Cc1ccccc1CCNC(=O)c1cn(C)nc1C(F)F [Compound G-12] | – | ≥ 70 | – |
| COc1ccccc1CCNC(=O)c1cn(C)nc1C(F)F [Compound G-4] | ≥ 70 | ≥ 70 | – |
| Cn1cc(C(=O)NCCc2c(Cl)cccc2Cl)c(C(F)F)n1 [Compound G-6] | ≥ 70 | ≥ 70 | pest or weed control at 330 ppm [3]: ≥ 50% |
| Cc1ccc(CCNC(=O)c2cccnc2Cl)c(C)c1 [Compound E-9] | – | ≥ 70 | – |
| Cc1ccsc1C(=O)NCCc1ccc(Cl)cc1Cl [Compound A-2] | – | – | pest or weed control at 500 ppm [2]: ≥ 70% |
| Cn1cc(C(=O)NCCc2ccccc2Cl)c(C(F)F)n1 [Compound G-2] | ≥ 70 | ≥ 70 | pest or weed control at 330 ppm [3]: ≥ 50% |
| Cn1cc(C(=O)NCCc2ccc(F)cc2F)c(C(F)F)n1 [Compound G-8] | ≥ 70 | ≥ 70 | pest or weed control at 500 ppm [3]: ≥ 50% |
| Cc1ccccc1CCNC(=O)c1cccnc1Cl [Compound E-2] | – | ≥ 70 | – |
| COc1cccc(CCNC(=O)c2cn(C)nc2C(F)F)c1OC [Compound G-3] | – | ≥ 70 | – |
| Cc1occc1C(=O)NCCc1ccc(Cl)cc1Cl [Compound C-1] | – | – | pest or weed control at 500 ppm [3]: ≥ 50% |
| Cc1nc(C(F)(F)F)c(C(=O)NCCc2ccccc2C)s1 [Compound D-6] | ≥ 70 | – | – |
| Cc1nc(N)sc1C(=O)NCCc1ccc(Cl)cc1Cl [Compound D-8] | – | – | pest or weed control at 500 ppm [2]: ≥ 70%; pest or weed control at 500 ppm ([1]; dose of 500 ppm): ≥ 70% |
| COc1ccc(OC)c(CCNC(=O)c2cn(C)nc2C(F)F)c1 [Compound G-7] | – | ≥ 70 | – |
| O=C(NCCc1ccc(Cl)cc1Cl)c1ccsc1I [Compound I-1] | – | – | pest or weed control at 500 ppm [2]: ≥ 70%; pest or weed control at 500 ppm [3]: ≥ 50% |
